Test results published in ChEMBL document CHEMBL1153779, “Tyrosinase-inhibitory constituents from the twigs of Cinnamomum cassia” (J Nat Prod, 2009).

Target: T1, Tyrosinase (Agaricus bisporus, UniProt O42713)
T1 sequence (O42713 whole entry): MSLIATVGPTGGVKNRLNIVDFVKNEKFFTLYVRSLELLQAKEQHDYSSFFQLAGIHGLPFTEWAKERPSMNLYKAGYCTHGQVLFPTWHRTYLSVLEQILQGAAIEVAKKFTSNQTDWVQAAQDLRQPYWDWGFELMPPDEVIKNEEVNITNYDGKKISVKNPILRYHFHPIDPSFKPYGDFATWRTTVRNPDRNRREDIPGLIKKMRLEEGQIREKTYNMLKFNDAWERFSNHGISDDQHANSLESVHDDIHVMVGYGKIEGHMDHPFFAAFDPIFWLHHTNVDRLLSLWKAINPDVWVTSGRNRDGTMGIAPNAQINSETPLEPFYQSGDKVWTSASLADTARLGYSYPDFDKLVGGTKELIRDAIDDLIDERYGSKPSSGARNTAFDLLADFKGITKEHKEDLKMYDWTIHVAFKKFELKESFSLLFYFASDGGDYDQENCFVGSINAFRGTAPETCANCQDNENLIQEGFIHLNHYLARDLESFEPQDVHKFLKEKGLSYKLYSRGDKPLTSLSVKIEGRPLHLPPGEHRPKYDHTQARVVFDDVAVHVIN
Description: Inhibition of mushroom tyrosinase after 10 mins by spectrophotometry

IC50 [µM]	Compound
260	COc1c(O)cccc1/C=C/C=O
420	COc1ccccc1/C=C/C=O
470	O=C/C=C/c1ccccc1O [2-HYDROXYCINNAMALDEHYDE]
240	COc1cc(/C=C/C=O)ccc1O [CONIFERYL ALDEHYDE]
670	O=C(CCc1ccccc1O)O[C@@H]1O[C@H](CO)[C@@H](O)[C@H](O)[C@H]1O [DIHYDROCINNACASSIDE]
4210	Oc1ccc(O)cc1 [HYDROQUINONE]
670	O=C(O)/C=C/c1ccccc1O [O-COUMARIC ACID]

Continued, compound first:

Compound	IC50 [µM]
OC[C@H]1O[C@@H](OCCc2ccccc2)[C@H](O)[C@@H](O)[C@@H]1O[C@@H]1OC[C@](O)(CO)[C@H]1O	710
O=C/C=C/c1ccccc1	520
C[C@@H]1O[C@@H](OC[C@H]2O[C@@H](Oc3ccccc3/C=C/CO)[C@H](O[C@@H]3[C@@H](OCc4ccccc4)O[C@@H](CO[C@@H]4OC[C@](O)(CO)[C@H]4O)[C@H](O)[C@H]3O)[C@@H](O)[C@@H]2O)[C@H](O)[C@H](O)[C@H]1O [CINNACASSINOL]	940
OC/C=C/c1ccccc1 [CINNAMIC ALCOHOL]	> 10000
O=C(O)CCc1ccccc1O[C@@H]1O[C@H](CO)[C@@H](O)[C@H](O)[C@H]1O [DIHYDROMELILOTOSIDE]	570
COC(=O)CCc1ccccc1O[C@@H]1O[C@H](CO)[C@@H](O)[C@H](O)[C@H]1O [METHYL DIHYDROMELILOTOSIDE]	630
O[C@@H]1[C@@H](O)[C@@H](OC/C=C/c2ccccc2)O[C@H](CO[C@@H]2OC[C@H](O)[C@H](O)[C@H]2O)[C@H]1O [ROSAVIN]	> 10000
